Data published in US20210338755A1, “AQUEOUS EXTRACT FROM CELLS OF FITZROYA CUPRESSOIDES (ALERCE) WITH ANTI- AGING AND SKIN REGENERATION PROPERTIES” (RUBISCO BIOTECHNOLOGY, priority 2018, published 2021).

Test system: HaCaT cells
Assay: Scratch wound experiment with cell division inhibitor mitomycin C
Type: cell-based
Conditions: 48 hours; 20 μmol/L mitomycin C before treatment with 0.125% v/v extract
Text: Evaluation of the effect of mitomycin C in wound healing repair. […] 20 μmol/L of Mitomycin C was applied before each treatment.
The application of mitomycin inhibits division of the HaCaT cells that, together with cell migration, are the two mechanisms involved in wound healing repair.

CO[C@@]12[C@H](COC(N)=O)C3=C(C(=O)C(C)=C(N)C3=O)N1C[C@@H]1N[C@@H]12 [mitomycin C]
effect on wound closure induced by Alerce cell culture extract: significantly inhibited the wound closure
